# ChEMBL document CHEMBL1201862, “PubChem BioAssay data set” (2004)
# Where a name gives a salt, the structure may show the parent alone. Calls of active or inactive are those of the source.
# Experiments:
# [1] = target: T1, DNA repair protein RAD52 homolog (Homo sapiens, UniProt P43351); type: functional, biochemical
# T1 sequence (P43351 whole entry): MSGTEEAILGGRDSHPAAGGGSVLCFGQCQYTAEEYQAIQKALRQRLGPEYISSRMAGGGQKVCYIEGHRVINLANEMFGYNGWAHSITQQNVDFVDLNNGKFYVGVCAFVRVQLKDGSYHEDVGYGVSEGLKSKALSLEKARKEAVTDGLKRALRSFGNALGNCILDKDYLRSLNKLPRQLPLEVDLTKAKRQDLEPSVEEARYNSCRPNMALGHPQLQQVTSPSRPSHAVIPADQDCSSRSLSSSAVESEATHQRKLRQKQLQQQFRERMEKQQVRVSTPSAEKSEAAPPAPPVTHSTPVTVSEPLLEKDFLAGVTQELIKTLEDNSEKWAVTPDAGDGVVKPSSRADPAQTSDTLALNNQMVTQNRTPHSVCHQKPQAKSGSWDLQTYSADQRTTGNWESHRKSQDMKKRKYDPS
# [2] = target: T2, DNA repair and recombination protein RAD54-like (Homo sapiens, UniProt Q92698); experiment: inhibitors of human RAD54 branch migration, confirmation, biochemical, fluorescence, cherry-picked samples, dose series (AID 651657); type: functional
# T2 sequence (Q92698 whole entry): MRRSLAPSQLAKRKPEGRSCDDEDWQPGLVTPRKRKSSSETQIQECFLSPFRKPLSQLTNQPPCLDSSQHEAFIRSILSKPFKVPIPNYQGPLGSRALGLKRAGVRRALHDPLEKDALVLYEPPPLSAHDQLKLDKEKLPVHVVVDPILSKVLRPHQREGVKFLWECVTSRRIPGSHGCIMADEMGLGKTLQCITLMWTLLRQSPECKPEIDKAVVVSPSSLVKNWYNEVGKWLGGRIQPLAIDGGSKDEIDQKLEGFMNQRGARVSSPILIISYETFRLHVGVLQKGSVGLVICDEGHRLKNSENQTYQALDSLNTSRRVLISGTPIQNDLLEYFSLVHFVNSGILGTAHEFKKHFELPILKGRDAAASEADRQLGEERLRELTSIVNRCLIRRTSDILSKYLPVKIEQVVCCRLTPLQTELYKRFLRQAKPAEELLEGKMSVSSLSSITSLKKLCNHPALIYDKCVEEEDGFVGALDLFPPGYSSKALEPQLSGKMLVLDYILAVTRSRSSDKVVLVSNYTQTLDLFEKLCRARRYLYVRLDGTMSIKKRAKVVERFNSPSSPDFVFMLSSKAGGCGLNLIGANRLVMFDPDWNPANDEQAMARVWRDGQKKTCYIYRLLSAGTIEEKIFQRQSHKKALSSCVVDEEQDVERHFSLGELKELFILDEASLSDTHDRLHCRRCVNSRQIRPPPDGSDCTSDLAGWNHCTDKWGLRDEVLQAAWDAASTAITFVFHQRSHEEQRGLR
# Fatty acid synthase [3] = target: T3, Fatty acid synthase (Homo sapiens, UniProt P49327); experiment: FAS thioesterase domain inhibitors, dose response, biochemical, endpoint fluorescence intensity, uHTS hits (AID 624327); type: functional;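 further: fluorescence from hydrolysis of an O-methyl fluorescein acyl ester substrate by the enzyme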
# T3 sequence (P49327 whole entry, the tested form may be a part): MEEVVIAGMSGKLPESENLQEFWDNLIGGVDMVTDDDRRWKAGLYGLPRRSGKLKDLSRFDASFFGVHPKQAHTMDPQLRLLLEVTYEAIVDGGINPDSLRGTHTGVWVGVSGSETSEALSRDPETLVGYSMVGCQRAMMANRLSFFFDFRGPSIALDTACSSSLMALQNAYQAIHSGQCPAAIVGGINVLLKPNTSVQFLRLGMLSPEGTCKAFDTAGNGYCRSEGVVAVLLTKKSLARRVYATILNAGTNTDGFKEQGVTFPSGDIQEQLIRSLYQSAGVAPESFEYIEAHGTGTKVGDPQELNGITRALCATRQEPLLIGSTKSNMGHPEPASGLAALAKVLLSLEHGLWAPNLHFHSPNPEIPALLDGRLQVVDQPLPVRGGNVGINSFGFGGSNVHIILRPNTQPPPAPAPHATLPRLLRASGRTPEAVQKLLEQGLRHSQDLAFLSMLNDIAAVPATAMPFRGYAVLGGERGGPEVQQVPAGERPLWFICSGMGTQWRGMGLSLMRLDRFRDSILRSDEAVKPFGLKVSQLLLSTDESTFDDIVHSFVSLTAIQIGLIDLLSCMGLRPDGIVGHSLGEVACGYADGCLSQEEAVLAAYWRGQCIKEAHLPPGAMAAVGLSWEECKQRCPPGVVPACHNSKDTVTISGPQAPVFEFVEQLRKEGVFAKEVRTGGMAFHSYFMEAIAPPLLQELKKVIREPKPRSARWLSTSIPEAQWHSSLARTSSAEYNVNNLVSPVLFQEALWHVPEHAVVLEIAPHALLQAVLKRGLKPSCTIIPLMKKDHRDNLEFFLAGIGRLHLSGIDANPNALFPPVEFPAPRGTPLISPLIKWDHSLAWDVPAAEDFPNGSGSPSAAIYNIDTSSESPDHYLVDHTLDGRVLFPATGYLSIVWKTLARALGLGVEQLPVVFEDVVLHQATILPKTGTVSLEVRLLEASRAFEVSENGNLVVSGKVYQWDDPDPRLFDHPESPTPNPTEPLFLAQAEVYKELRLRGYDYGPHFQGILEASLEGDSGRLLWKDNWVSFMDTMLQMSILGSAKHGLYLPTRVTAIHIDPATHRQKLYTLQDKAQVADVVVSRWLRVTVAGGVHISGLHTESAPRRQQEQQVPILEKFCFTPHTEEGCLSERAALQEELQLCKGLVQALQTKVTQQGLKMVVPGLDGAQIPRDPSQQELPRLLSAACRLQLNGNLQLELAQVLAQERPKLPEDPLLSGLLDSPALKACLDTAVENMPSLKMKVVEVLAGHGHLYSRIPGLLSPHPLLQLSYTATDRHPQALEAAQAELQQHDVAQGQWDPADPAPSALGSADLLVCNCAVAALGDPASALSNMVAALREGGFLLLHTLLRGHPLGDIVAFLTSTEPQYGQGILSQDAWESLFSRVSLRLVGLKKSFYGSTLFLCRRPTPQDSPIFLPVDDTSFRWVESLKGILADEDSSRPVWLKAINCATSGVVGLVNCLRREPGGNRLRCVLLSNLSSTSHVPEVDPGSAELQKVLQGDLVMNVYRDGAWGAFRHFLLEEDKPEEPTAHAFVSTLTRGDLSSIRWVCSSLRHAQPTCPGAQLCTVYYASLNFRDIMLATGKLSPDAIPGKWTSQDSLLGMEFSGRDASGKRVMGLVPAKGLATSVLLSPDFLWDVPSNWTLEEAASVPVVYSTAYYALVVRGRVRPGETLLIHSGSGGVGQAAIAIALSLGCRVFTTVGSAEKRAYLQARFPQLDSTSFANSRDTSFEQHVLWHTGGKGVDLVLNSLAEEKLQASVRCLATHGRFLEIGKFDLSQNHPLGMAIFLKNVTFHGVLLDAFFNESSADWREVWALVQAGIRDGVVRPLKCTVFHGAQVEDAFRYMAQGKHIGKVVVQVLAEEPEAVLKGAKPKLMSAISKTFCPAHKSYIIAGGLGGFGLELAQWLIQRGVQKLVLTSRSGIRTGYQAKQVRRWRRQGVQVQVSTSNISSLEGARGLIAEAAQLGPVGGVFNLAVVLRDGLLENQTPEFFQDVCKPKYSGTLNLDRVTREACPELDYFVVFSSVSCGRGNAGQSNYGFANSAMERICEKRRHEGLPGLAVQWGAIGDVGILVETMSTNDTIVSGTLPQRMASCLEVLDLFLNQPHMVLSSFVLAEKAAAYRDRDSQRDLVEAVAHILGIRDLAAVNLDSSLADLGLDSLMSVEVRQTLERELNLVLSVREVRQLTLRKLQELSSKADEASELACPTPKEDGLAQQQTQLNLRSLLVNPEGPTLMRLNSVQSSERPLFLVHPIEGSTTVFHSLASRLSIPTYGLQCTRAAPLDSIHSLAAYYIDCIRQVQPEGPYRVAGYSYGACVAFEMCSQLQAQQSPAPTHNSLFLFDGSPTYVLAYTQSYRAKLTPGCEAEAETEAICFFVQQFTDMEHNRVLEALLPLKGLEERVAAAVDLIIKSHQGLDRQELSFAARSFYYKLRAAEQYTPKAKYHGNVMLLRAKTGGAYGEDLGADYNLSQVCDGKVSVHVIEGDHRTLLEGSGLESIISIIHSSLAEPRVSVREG
# Fatty acid synthase [4] = target: T3, Fatty acid synthase; experiment: FAS thioesterase domain inhibitors, dose response, biochemical, kinetic fluorescence intensity (AID 624326); type: functional;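 further: rate of fluorescence rise from hydrolysis of a fluorogenic O-methyl fluorescein ester substrate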
# H4 = experiment: Luminescence Cell-Based Dose Response HTS to Identify Activators of 5'UTR Stem-Loop Driven Prion Protein mRNA Translation in H4 Neuroglioblastoma Cells. [Related pubchem assays: 1829 (Project Summary), 1814 (Primary HTS)]; type: functional; details: Homo sapiens
# [5] = Luminescence Cell-Based Dose Response HTS to Identify Activators of Luciferase Translation or Activity in H4 […] Cells. [Related pubchem assays: 1829 (Project Summary), 1814 (Primary HTS)]; type: functional
# [6] = Luminescence Cell-Based Dose Confirmation HTS to Identify Activators of 5'UTR Stem-Loop Driven Alpha-Synuclein mRNA Translation in H4 Neuroglioblastoma Cells. [Related pubchem assays: 1829 (Project Summary), 1814 (Primary HTS)]; type: functional
# Cytochrome P450 3A4 = Cytochrome P450 3A4 (Homo sapiens, UniProt P08684); details: Potency;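 further: confirmatory qHTS run detecting inhibitors and substrates of CYP3A4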
# Chain of Cytochrome P450 3A4 (P08684 whole entry): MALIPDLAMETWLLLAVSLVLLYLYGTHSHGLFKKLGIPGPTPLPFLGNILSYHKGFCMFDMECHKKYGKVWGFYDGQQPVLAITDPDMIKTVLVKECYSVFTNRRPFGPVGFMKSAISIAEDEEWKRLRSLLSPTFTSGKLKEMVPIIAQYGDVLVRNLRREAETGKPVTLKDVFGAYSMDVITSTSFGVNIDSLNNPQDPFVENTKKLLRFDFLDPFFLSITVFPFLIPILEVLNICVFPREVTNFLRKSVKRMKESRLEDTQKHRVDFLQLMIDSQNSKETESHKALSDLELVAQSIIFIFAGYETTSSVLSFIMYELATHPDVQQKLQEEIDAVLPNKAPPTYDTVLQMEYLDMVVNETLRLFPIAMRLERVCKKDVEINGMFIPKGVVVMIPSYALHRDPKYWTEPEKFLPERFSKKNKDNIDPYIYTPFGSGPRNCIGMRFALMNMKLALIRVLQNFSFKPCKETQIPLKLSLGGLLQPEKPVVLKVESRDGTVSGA
# [7] = microbe, parasite or virus in culture; type: functional; details: Mycobacterium tuberculosis
# [8] = target: T4, Ubiquitin-conjugating enzyme E2 N (Homo sapiens, UniProt P61088); type: functional;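 further: Dose-response confirmation in a TR-FRET assay detecting UBC13-driven polyubiquitin chain formation, inhibition measured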
# T4 sequence (P61088 whole entry): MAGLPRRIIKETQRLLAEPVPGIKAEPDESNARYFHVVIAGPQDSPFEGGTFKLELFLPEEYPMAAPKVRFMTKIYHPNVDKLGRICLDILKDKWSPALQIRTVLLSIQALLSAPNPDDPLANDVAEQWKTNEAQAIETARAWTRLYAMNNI
# cells = type: functional
# [9] = target: Luciferin 4-monooxygenase (Photinus pyralis, UniProt P08659); experiment: firefly luciferase enzyme inhibitors, dose response, biochemical, luminescence (AID 1891)
# Chain of Luciferin 4-monooxygenase (P08659 whole entry): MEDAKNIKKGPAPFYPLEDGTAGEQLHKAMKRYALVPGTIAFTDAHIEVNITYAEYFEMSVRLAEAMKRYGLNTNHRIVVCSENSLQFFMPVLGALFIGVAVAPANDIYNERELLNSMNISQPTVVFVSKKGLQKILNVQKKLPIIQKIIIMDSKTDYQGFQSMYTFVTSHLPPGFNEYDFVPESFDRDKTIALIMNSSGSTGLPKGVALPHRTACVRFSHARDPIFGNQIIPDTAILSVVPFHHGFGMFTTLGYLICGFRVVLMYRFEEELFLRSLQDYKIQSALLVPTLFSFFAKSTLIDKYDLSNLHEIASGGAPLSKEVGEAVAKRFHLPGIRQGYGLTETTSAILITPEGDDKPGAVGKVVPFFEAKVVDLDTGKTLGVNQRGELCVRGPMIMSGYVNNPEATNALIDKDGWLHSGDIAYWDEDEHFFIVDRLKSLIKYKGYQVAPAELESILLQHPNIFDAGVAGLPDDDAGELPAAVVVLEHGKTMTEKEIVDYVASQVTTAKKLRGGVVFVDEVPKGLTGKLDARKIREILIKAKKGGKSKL
# BJ [10] = experiment: cells; type: functional, cell-based; details: Homo sapiens
# BJ [11] = experiment: cytotoxicity toward BJ-TERT fibroblasts, dose response, cell-based, RAS-independent, luminescence (AID 1933); type: functional; details: Homo sapiens
# [12] = Luminescence Cell-Based Dose Confirmation HTS to Identify Inhibitors of Platelet Dense Granule Release. [Related pubchem assays: 1663 (Primary HTS), 1678 (Summary of Project)]; type: functional
# BJ [13] = experiment: cytotoxicity toward BJ-TERT-LT-ST fibroblasts, dose response, cell-based, RAS-independent, luminescence (AID 1935); type: functional; details: Homo sapiens;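 further: BJ fibroblasts immortalized with TERT plus LT and ST oncogenes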
# [14] = cytotoxicity toward DRD oncogenic fibroblasts, dose response, cell-based, non-viral oncogenic, luminescence (AID 1934); type: functional; details: Homo sapiens
# [15] = growth suppression of PTEN-null colon cells, dose response, cell-based, HCT116 PTEN knockout (AID 1047); type: functional;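 further: HCT116 colon tumor cells with PTEN knocked out; cells exposed to compound for 60 hours before readout; potency for loss of cell viability measured by luminescence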
# [16] = inhibitors of intracellular T. cruzi replication, confirmation, NIH3T3 host cells, beta-gal luminescence (AID 2044); type: functional, cell-based;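 further: intracellular parasites grown in NIH/3T3 mouse fibroblasts as host cells; luminescent beta-galactosidase reporter signal from transgenic T. cruzi replicating inside host cells; inhibitors lower the luminescence signal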
# [17] = growth suppression of beta-catenin-knockout colon cells, dose response, cell-based, HCT116, human colon tumor (AID 1045); type: functional;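 further: HCT116 colon tumor cells with beta catenin knocked out; cells exposed to compound for 60 hours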
# [18] = cytotoxicity toward NIH3T3 fibroblasts, dose response, counter-screen, cell-based, ATP luminescence, mouse fibroblasts (AID 2010); type: functional;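 further: cells exposed to compound for about 90 hours before reading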
# [19] = inhibitors of HIV Env-driven cell fusion, dose response, cherry-pick (AID 652057); type: functional, cell-based
# [20] = ZM109 Env clade C HIV-1 fusion inhibitors, dose response, HeLa effector, CEM target cells, luciferase, cherry-pick (AID 652058); type: functional, cell-based
# [21] = target: T5, Rac GTPase-activating protein 1 (Homo sapiens, UniProt Q9H0H5); experiment: MgcRacGAP GTPase-activating activity inhibitors, confirmation, biochemical, ADP Hunter fluorescence, primary and confirmatory (AID 624330); type: functional
# T5 sequence (Q9H0H5 whole entry): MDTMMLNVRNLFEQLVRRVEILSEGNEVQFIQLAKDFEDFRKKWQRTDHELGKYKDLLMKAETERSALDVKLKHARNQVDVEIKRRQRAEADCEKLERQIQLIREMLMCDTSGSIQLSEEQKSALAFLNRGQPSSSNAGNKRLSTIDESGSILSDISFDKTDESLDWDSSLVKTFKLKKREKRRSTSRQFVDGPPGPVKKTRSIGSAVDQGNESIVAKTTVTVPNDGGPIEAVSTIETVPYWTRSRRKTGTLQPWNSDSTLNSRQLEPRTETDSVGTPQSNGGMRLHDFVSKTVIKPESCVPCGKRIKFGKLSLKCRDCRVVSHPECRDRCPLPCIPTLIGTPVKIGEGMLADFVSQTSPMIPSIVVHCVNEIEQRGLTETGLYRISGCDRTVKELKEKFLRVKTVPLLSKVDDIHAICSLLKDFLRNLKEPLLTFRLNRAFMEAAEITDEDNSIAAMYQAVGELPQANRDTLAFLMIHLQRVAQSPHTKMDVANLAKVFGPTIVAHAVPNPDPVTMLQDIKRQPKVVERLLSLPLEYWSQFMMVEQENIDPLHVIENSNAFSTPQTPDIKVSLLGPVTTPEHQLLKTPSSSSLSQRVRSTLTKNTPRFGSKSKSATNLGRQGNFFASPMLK
# [22] = target: FAD-linked sulfhydryl oxidase ALR (Homo sapiens, UniProt P55789); experiment: inhibitors of human ALR sulfhydryl oxidase, dose response, biochemical, H2O2 detection, luminescence, cherry-pick (AID 493248)
# Chain of FAD-linked sulfhydryl oxidase ALR (P55789 whole entry): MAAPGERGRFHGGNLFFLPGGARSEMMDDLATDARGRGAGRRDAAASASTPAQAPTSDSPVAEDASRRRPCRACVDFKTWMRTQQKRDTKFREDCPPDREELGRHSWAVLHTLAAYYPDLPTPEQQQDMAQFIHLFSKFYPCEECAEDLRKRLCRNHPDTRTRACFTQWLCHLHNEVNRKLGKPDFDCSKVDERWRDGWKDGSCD
smiles,measurement,setting,value
CCCCN(CC)CCCNC(=S)Nc1ccc2nc(N3CCN(C)CC3)cc(C)c2c1,AC50,[1],1.95 µM (active)
same,AC50,[2],30.8 µM (active)
CN(C)CCCNC(=O)/C(=C\C=C\c1ccccc1)NC(=O)c1ccc([N+](=O)[O-])cc1,IC50,Fatty acid synthase [3],0.87 µM (active)
same,IC50,Fatty acid synthase [4],4.11 µM (active)
COc1ccc(NC(=O)COC(=O)c2cc([N+](=O)[O-])ccc2N2CCOCC2)cc1,IC50,Fatty acid synthase [3],2.92 µM (active)
same,IC50,Fatty acid synthase [4],2.1 µM (active)
COn1c(-c2ccc(Cl)cc2)nc2ncccc21,EC50,H4,51.9 µM (active)
same,EC50,[5],35.5 µM (active)
same,EC50,[6],0.106 µM (active)
Cc1cccc(N2CCN(C(=O)CNC(=O)c3ccccc3)CC2)c1C,EC50,H4,> 60 µM (not active)
same,EC50,[5],11.3 µM (active)
same,EC50,[6],19.2 µM (active)
CCCCC(CC)COC(=O)CCCCC(=O)OCC(CC)CCCC (stereo not given),AC50,Cytochrome P450 3A4,20 µM (inconclusive)
O=C(N/C(=C/c1ccccc1)C(=O)N1CCOCC1)c1ccc([N+](=O)[O-])cc1,IC50,Fatty acid synthase [3],16.8 µM (active)
same,IC50,Fatty acid synthase [4],7.55 µM (active)
CNC(C)C#Cc1ccc2oc3cccc(OC)c3c(=O)c2c1 (stereo not given),AC50,[2],24.3 µM (active)
CSc1nc2sc3c(c2c(=O)n1C)CCC(C)C3 (stereo not given),EC50,H4,15.3 µM (active)
same,EC50,[5],19.9 µM (active)
same,EC50,[6],5.51 µM (active)
CCOC(=O)c1c(NC(=O)C(NCCN(C)C)c2ccccc2)sc2c1CCCC2 (stereo not given),AC50,[1],10 µM (active)
same,CC50,[7],13.2 µM (active)
same,IC50,[8],> 20 µM (inactive)
CC1CCC(NC(=O)Cn2cc3c(n2)CCCC3)CC1 (stereo not given),EC50,H4,4.09 µM (active)
same,EC50,[5],3.02 µM (active)
same,EC50,[6],0.278 µM (active)
CN(Cc1ccccc1)C(=O)COC(=O)c1cc(Cl)nc(Cl)c1,IC50,Fatty acid synthase [3],8.07 µM (active)
same,IC50,Fatty acid synthase [4],13.5 µM (active)
COC(c1ccccc1Br)C(C)/C=C/CCO (stereo not given),AC50,Cytochrome P450 3A4,3.16 µM (inconclusive)
CC(C)OC(=O)c1sc2nc3c(cc2c1N)C(=O)CCC3,EC50,H4,41.6 µM (active)
same,EC50,[5],73.1 µM (active)
same,EC50,[6],41.9 µM (active)
O=C(NCCc1c[nH]c2ccccc12)c1cc2ccccc2oc1=O,EC50,H4,11 µM (active)
same,EC50,[5],119 µM (active)
same,EC50,[6],0.481 µM (active)
same,IC50,cells,0.34 µM (active)
O=C(CCl)NCCCCCCCCCNC(=O)CCl,EC50,[9],> 112 µM (not active)
same,EC50,BJ [10],> 150 µM (not active)
same,CC50,[7],19 µM (active)
same,EC50,BJ [11],18.8 µM (active)
same,EC50,[12],> 112 µM (not active)
same,EC50,BJ [13],> 150 µM (not active)
same,EC50,[14],> 150 µM (not active)
O=C(COC(=O)c1cc([N+](=O)[O-])ccc1NCCO)c1ccccc1,IC50,Fatty acid synthase [3],8.17 µM (active)
same,IC50,Fatty acid synthase [4],8.98 µM (active)
CCOC(=O)c1cnc2c(Cl)cccc2c1NCCCN1CCOCC1,AC50,[2],32.7 µM (active)
Cn1nc(-c2ccc(N3CCCCC3)c(NC(=O)c3ccco3)c2)c2ccccc2c1=O,EC50,[15],7.35 µM (active)
same,CC50,[7],26.3 µM (active)
same,EC50,[16],1.23 µM (active)
same,EC50,[17],9.07 µM (active)
same,EC50,[18],> 60 µM (not active)
Cc1cc(NCCCN(C)C)n2c(nc3ccccc32)c1C#N,AC50,[2],18.7 µM (active)
CCN(CC)CCn1c2ccc(Cl)cc2c2nc(C)sc21,AC50,[1],5.39 µM (active)
same,AC50,[2],22.1 µM (active)
OCCN1CCN(c2nc(-c3ccccc3O)nc3ccccc23)CC1,AC50,[2],7.01 µM (active)
C[C@H](CO)N1C[C@H](C)[C@@H](CN(C)Cc2ccncc2)Oc2cc(C3=CCCCC3)ccc2S1(=O)=O,AC50,[19],13.4 µM (active)
same,AC50,[20],12.3 µM (active)
COC(C)(C)CCCC(C)C/C=C/C(C)=C/C(=O)OC(C)C (stereo not given),AC50,Cytochrome P450 3A4,31.6 µM (inconclusive)
O=c1cc(-c2ccc(O)cc2)oc2cc(O)ccc12,AC50,Cytochrome P450 3A4,7.94 µM (inconclusive)
Cc1occc1C(=O)N/N=C/c1cccc2ccccc12,EC50,H4,52.9 µM (active)
same,EC50,[5],0.19 µM (active)
same,EC50,[6],0.129 µM (active)
O=C(CCC(=O)Nc1ccc(Br)cc1)N/N=C/c1cc([N+](=O)[O-])ccc1O,IC50,Fatty acid synthase [3],12.9 µM (active)
same,IC50,Fatty acid synthase [4],8.73 µM (active)
Nc1ccc(Oc2ccc(N)cc2)cc1,AC50,Cytochrome P450 3A4,31.6 µM (inconclusive)
Oc1ccc(Nc2ccnc3cc(Cl)ccc23)cc1,AC50,[2],80.3 µM (active)
same,IC50,[21],28.1 µM (active)
CN1CCCCC1c1ccc(-c2cccnc2)nc1 (stereo not given) [ANABASAMINE HYDROCHLORIDE],AC50,Cytochrome P450 3A4,12.6 µM (inconclusive)
COc1cc(C)c(C(=O)Oc2cc(C)c(C(=O)O)c(O)c2C)c(OC)c1C [DIFFRACTAIC ACID],AC50,Cytochrome P450 3A4,25.1 µM (inconclusive)
same,AC50,[22],0.784 µM (active)
CS(C)(=O)=O [DIMETHYL SULFONE],AC50,Cytochrome P450 3A4,20 µM (inconclusive)
